Literature values as cited in PubChem BioAssay AID1259409 (Chemical Carcinogenesis Research Information System (CCRIS), 2018).

Test system: rodent chemically induced tumor inhibition, incidence and multiplicity
Assay: CCRIS tumor inhibitor studies

Row | Structure (SMILES) | tumour outcome (control, treated, inhibition, significance) (Carcinogen: 7,12-DIMETHYLBENZ[A]ANTHRACENE, 57-97-6, Dose [Inhibitor]: 0, 0.044 NMOL IN 0.2 ML ACETONE APPLIED TO BACK ONCE 5 MIN PRIOR TO CARCINOGEN DOSE (STUDY DURATION: 26 WK), Route [Inhibitor]: DERMAL, Species: MOUSE, Strain/Sex: SENCAR/FEMALE, Target Tissue: Type of Lesion: SKIN: PAPILLOMA, Dose [Carcinogen]: 10 NMOL IN 0.2 ML ACETONE APPLIED TO BACK ONCE.) | tumour outcome (control, treated, inhibition, significance) (Carcinogen: 7,12-DIMETHYLBENZ[A]ANTHRACENE, 57-97-6, Dose [Inhibitor]: 0, 0.44 NMOL IN 0.2 ML ACETONE APPLIED TO BACK ONCE 5 MIN PRIOR TO CARCINOGEN DOSE (STUDY DURATION: 20 WK), Route [Inhibitor]: DERMAL, Species: MOUSE, Strain/Sex: SENCAR/FEMALE, Target Tissue: Type of Lesion: SKIN: PAPILLOMA, Dose [Carcinogen]: 10 NMOL IN 0.2 ML ACETONE APPLIED TO BACK ONCE.) | outcome (Carcinogen: 7,12-DIMETHYLBENZ[A]ANTHRACENE, 57-97-6, Dose [Inhibitor]: 0, 0.44 NMOL IN 0.2 ML ACETONE APPLIED TO BACK ONCE 5 MIN PRIOR TO CARCINOGEN DOSE (STUDY DURATION: 26 WK), Route [Inhibitor]: DERMAL, Species: MOUSE, Strain/Sex: SENCAR/FEMALE, Target Tissue: Type of Lesion: SKIN: PAPILLOMA, Dose [Carcinogen]: 10 NMOL IN 0.2 ML ACETONE APPLIED TO BACK ONCE.) | tumour outcome (control, treated, inhibition, significance) (Carcinogen: 7,12-DIMETHYLBENZ[A]ANTHRACENE, 57-97-6, Dose [Inhibitor]: 0, 4.4 NMOL IN 0.2 ML ACETONE APPLIED TO BACK ONCE 5 MIN PRIOR TO CARCINOGEN DOSE (STUDY DURATION: 26 WK), Route [Inhibitor]: DERMAL, Species: MOUSE, Strain/Sex: SENCAR/FEMALE, Target Tissue: Type of Lesion: SKIN: PAPILLOMA, Dose [Carcinogen]: 10 NMOL IN 0.2 ML ACETONE APPLIED TO BACK ONCE.) | tumour outcome (control, treated, inhibition, significance) (Carcinogen: 7,12-DIMETHYLBENZ[A]ANTHRACENE, 57-97-6, Dose [Inhibitor]: 0, 22 NMOL IN 0.2 ML ACETONE APPLIED TO BACK ONCE 5 MIN PRIOR TO CARCINOGEN DOSE (STUDY DURATION: 26 WK), Route [Inhibitor]: DERMAL, Species: MOUSE, Strain/Sex: SENCAR/FEMALE, Target Tissue: Type of Lesion: SKIN: PAPILLOMA, Dose [Carcinogen]: 10 NMOL IN 0.2 ML ACETONE APPLIED TO BACK ONCE.) | tumour outcome (control, treated, inhibition, significance) (Carcinogen: 7,12-DIMETHYLBENZ[A]ANTHRACENE, 57-97-6, Dose [Inhibitor]: 0, 44 NMOL IN 0.2 ML ACETONE APPLIED TO BACK ONCE 5 MIN PRIOR TO CARCINOGEN DOSE (STUDY DURATION: 26 WK), Route [Inhibitor]: DERMAL, Species: MOUSE, Strain/Sex: SENCAR/FEMALE, Target Tissue: Type of Lesion: SKIN: PAPILLOMA, Dose [Carcinogen]: 10 NMOL IN 0.2 ML ACETONE APPLIED TO BACK ONCE.) | tumour outcome (control, treated, inhibition, significance) (Carcinogen: 7,12-DIMETHYLBENZ[A]ANTHRACENE, 57-97-6, Dose [Inhibitor]: 0, 440 NMOL IN 0.2 ML ACETONE APPLIED TO BACK ONCE 5 MIN PRIOR TO CARCINOGEN DOSE (STUDY DURATION: 20 WK), Route [Inhibitor]: DERMAL, Species: MOUSE, Strain/Sex: SENCAR/FEMALE, Target Tissue: Type of Lesion: SKIN: PAPILLOMA, Dose [Carcinogen]: 10 NMOL IN 0.2 ML ACETONE APPLIED TO BACK ONCE.) | tumour outcome (control, treated, inhibition, significance) (Carcinogen: 7,12-DIMETHYLBENZ[A]ANTHRACENE, 57-97-6, Dose [Inhibitor]: 0, 4400 NMOL IN 0.2 ML ACETONE APPLIED TO BACK ONCE., Route [Inhibitor]: DERMAL, Species: MOUSE, Strain/Sex: SENCAR/FEMALE, Target Tissue: Type of Lesion: SKIN: PAPILLOMA, Dose [Carcinogen]: 10 NMOL IN 0.2 ML ACETONE APPLIED TO BACK ONCE.) | tumour outcome (control, treated, inhibition, significance) (Carcinogen: BENZO[A]PYRENE, 50-32-8, Dose [Inhibitor]: 0, 22 NMOL IN 0.2 ML ACETONE APPLIED TO BACK ONCE 5 MIN PRIOR TO CARCINOGEN DOSE (STUDY DURATION: 26 WK), Route [Inhibitor]: DERMAL, Species: MOUSE, Strain/Sex: SENCAR/FEMALE, Target Tissue: Type of Lesion: SKIN: PAPILLOMA, Dose [Carcinogen]: 200 NMOL IN 0.2 ML ACETONE APPLIED TO BACK ONCE.) | tumour outcome (control, treated, inhibition, significance) (Carcinogen: BENZO[A]PYRENE, 50-32-8, Dose [Inhibitor]: 0, 44 NMOL IN 0.2 ML ACETONE APPLIED TO BACK ONCE 5 MIN PRIOR TO CARCINOGEN DOSE (STUDY DURATION: 26 WK), Route [Inhibitor]: DERMAL, Species: MOUSE, Strain/Sex: SENCAR/FEMALE, Target Tissue: Type of Lesion: SKIN: PAPILLOMA, Dose [Carcinogen]: 200 NMOL IN 0.2 ML ACETONE APPLIED TO BACK ONCE.) | tumour outcome (control, treated, inhibition, significance) (Carcinogen: BENZO[A]PYRENE, 50-32-8, Dose [Inhibitor]: 0, 440 NMOL IN 0.2 ML ACETONE APPLIED TO BACK ONCE 5 MIN PRIOR TO CARCINOGEN DOSE (STUDY DURATION: 26 WK), Route [Inhibitor]: DERMAL, Species: MOUSE, Strain/Sex: SENCAR/FEMALE, Target Tissue: Type of Lesion: SKIN: PAPILLOMA, Dose [Carcinogen]: 200 NMOL IN 0.2 ML ACETONE APPLIED TO BACK ONCE.) | tumour outcome (control, treated, inhibition, significance) (Carcinogen: BENZO[A]PYRENE, 50-32-8, Dose [Inhibitor]: 0, 4400 NMOL IN 0.2 ML ACETONE APPLIED TO BACK ONCE 5 MIN PRIOR TO CARCINOGEN DOSE (STUDY DURATION: 20 WK), Route [Inhibitor]: DERMAL, Species: MOUSE, Strain/Sex: SENCAR/FEMALE, Target Tissue: Type of Lesion: SKIN: PAPILLOMA, Dose [Carcinogen]: 200 NMOL IN 0.2 ML ACETONE APPLIED TO BACK ONCE.) | tumour outcome (control, treated, inhibition, significance) (Carcinogen: BENZO[A]PYRENE, 50-32-8, Dose [Inhibitor]: 0, 4400 NMOL IN 0.2 ML ACETONE APPLIED TO BACK ONCE 5 MIN PRIOR TO CARCINOGEN DOSE (STUDY DURATION: 26 WK), Route [Inhibitor]: DERMAL, Species: MOUSE, Strain/Sex: SENCAR/FEMALE, Target Tissue: Type of Lesion: SKIN: PAPILLOMA, Dose [Carcinogen]: 200 NMOL IN 0.2 ML ACETONE APPLIED TO BACK ONCE.) | tumour outcome (control, treated, inhibition, significance) (Carcinogen: BENZO[A]PYRENE, 50-32-8, Dose [Inhibitor]: 0, 22000 NMOL IN 0.2 ML ACETONE APPLIED TO BACK ONCE 5 MIN PRIOR TO CARCINOGEN DOSE (STUDY DURATION: 20 WK), Route [Inhibitor]: DERMAL, Species: MOUSE, Strain/Sex: SENCAR/FEMALE, Target Tissue: Type of Lesion: SKIN: PAPILLOMA, Dose [Carcinogen]: 200 NMOL IN 0.2 ML ACETONE APPLIED TO BACK ONCE.) | tumour outcome (control, treated, inhibition, significance) (Carcinogen: BENZO[A]PYRENE, 50-32-8, Dose [Inhibitor]: 0, 44000 NMOL IN 0.2 ML ACETONE APPLIED TO BACK ONCE 5 MIN PRIOR TO CARCINOGEN DOSE (STUDY DURATION: 20 WK), Route [Inhibitor]: DERMAL, Species: MOUSE, Strain/Sex: SENCAR/FEMALE, Target Tissue: Type of Lesion: SKIN: PAPILLOMA, Dose [Carcinogen]: 200 NMOL IN 0.2 ML ACETONE APPLIED TO BACK ONCE.) | tumour outcome (control, treated, inhibition, significance) (Carcinogen: N-METHYL-N'-NITRO-N-NITROSOGUANIDINE, 70-25-7, Dose [Inhibitor]: 0, 4400 NMOL IN 0.2 ML ACETONE APPLIED TO BACK ONCE 5 MIN PRIOR TO CARCINOGEN DOSE (STUDY DURATION: 20 WK), Route [Inhibitor]: DERMAL, Species: MOUSE, Strain/Sex: SENCAR/FEMALE, Target Tissue: Type of Lesion: SKIN: PAPILLOMA, Dose [Carcinogen]: 2500 NMOL IN 0.2 ML ACETONE APPLIED TO BACK ONCE.) | tumour outcome (control, treated, inhibition, significance) (Carcinogen: 4-(METHYLNITROSAMINO)-1-(3-PYRIDLY)-1-BUTANONE [64091-91-4], Dose [Inhibitor]: 1 MG/KG BW 3X/WK FOR 31 WK BEGINNING 1 WK POST LAST CARCINOGEN DOSE (STUDY DURATION: 52 WK), Route [Inhibitor]: SUBCUTANEOUS, Species: HAMSTER, Strain/Sex: SYRIAN/MALE, Target Tissue: Type of Lesion: LUNG: TUMOR, Dose [Carcinogen]: 10 MG/KG BW 3X/WK FOR 20 WK (STUDY DURATION: 52 WK), Promoter: NONE) | tumour outcome (control, treated, inhibition, significance) (Carcinogen: 4-(METHYLNITROSAMINO)-1-(3-PYRIDLY)-1-BUTANONE [64091-91-4], Dose [Inhibitor]: 1 MG/KG BW 3X/WK FOR 31 WK BEGINNING 1 WK POST LAST CARCINOGEN DOSE (STUDY DURATION: 52 WK), Route [Inhibitor]: SUBCUTANEOUS, Species: HAMSTER, Strain/Sex: SYRIAN/MALE, Target Tissue: Type of Lesion: NASAL CAVITY: TUMOR, Dose [Carcinogen]: 10 MG/KG BW 3X/WK FOR 20 WK (STUDY DURATION: 52 WK), Promoter: NONE)
1 | C#Cc1ccc2ccc3cccc4ccc1c2c34 | 100%, 93%, 7%, not calculated | 100%, 50%, 50%, not calculated | 100%, 100%, 0, not calculated | 100%, 83%, 17%, not calculated | 100%, 60%, 40%, not calculated | 100%, 35%, 65%, not calculated | 100%, 24%, 76%, not calculated | 100%, 0%, 100%, not calculated | 100%, 91%, 9%, not calculated | 100%, 96%, 4%, not calculated | 100%, 74%, 26%, not calculated | 75%, 59%, 21%, not calculated | 100%, 71%, 29%, not calculated | 75%, 35%, 53%, not calculated | 75%, 22%, 71%, not calculated | 78%, 78%, 0%, not significant |  | 
2 | CNC[C@H](O)c1ccc(O)c(O)c1 |  |  |  |  |  |  |  |  |  |  |  |  |  |  |  |  | 12/15 (80.0%), 15/15 (100.0%), -25%, not calculated | 4/15 (26.7%), 3/15 (20.0%), 25%, not calculated
